These results are taken from patent US4556735A, “Spergualin-related compounds having a phenylene group as well as a process for producing the same” (Zaidan Hojin Biseibutsu Kagaku Kenkyukai, priority 1984, dated 1985).

Where a name gives a salt, the structure may show the parent alone.

Broadly, the IC50 is the concentration that gives 50% inhibition.

Series [1] can be described thus: Stability of the compounds in aqueous solution (percent residue by high pressure liquid chromatography). The following applies: 0.5 (w/w) % in water, 40°±1° C. Type of series: physicochemical. The procedure:
Each of the compounds of the present invention was dissolved in water to give a concentration of 0.5 (w/w) %. The aqueous solution was held at 40°±1° C. and samples were taken at given intervals. They were subjected to high pressure liquid chromatography and the percent residue was calculated for each sample by measuring the peak area ratio.
The percent residue for the compounds of the present invention after the lapse of a given period is shown in Table 2, with the value for the start of the experiment being taken as 100%.

For series [2], the system named is mouse leukemia L1210 cells. As to the kind of experiment: Inhibition of in vitro growth of mouse leukemia L1210 cells. Type of series: cell-based. Particulars: 48 hours at 37° C., 5% CO2. The method, then:
Leukemia L1210 cells (1×10^5 /0.2 ml) were transplanted in the intraperitoneal cavity of DBA/2 strain female mice. Four days later, a sample of the abdominal ascites was taken and centrifuged to obtain L1210 cells. These cells were suspended in an RPMI 1640 medium supplemented with fetal bovine serum and 2-mercaptoethanol to have a final concentration of 5×10^4 cells/0.9 ml.
Each of the compounds of the present invention was dissolved in the medium shown above.
A portion (0.9 ml) of the L1210 cell suspension was mixed with 0.1 ml of the test solution ranging from 0.62 to 1000 μg/ml, and the mixture was incubated in a 5% CO2 atmosphere for 48 hours at 37° C. The cell count was determined both before and after the incubation, and the concentration to inhibit the growth of L1210 cells by 50% of the control (IC50) was determined.

The subject of series [3] is mouse leukemia L1210. As to the kind of experiment: Life extending effect against mouse leukemia L1210. Type of series: in vivo. The following applies: 9 consecutive days, >125 considered effective. The method, then:
Leukemia cells L1210 (1×10^5 cells/0.2 ml) were inoculated in the intraperitoneal cavity of CDF1 -SLC female mice (6 mice per group). Two compounds of the present invention were each diluted with physiological saline in various concentrations, and starting on the day following the transplantation, each dilution was administered to the mice for 9 consecutive days in a volume of 0.1 ml 10 g (body weight).
30 Days after the inoculation, the mean survival time (day) for each treated group was calculated, and divided by the mean survival time of the control group, and multiplied by 100 to obtain the percent life prolongation (T/C). T/C values greater than 125 are considered to be effective.

In series [4] the test system is rats. As to the kind of experiment: Toxicity in rats (decrease rate of body weight). The class given is in vivo, rat. Particulars: intraperitoneal, once a day for 10 days, 6.25 mg/ml in 0.2 ml/100 g. The procedure: The compound No. 1 was dissolved in physiological saline (the concentration of the compound No. 1: 6.25 mg/ml). The obtained solution was administered intraperitoneally to rats once a day for 10 consecutive days in a volume of 0.2 ml/100 g (body weight).
Decrease rate of body weight of rats was determined as follows: [formula]

Series [5] concerns leukemia EL-4. The following applies: cited from earlier work.
Series [6] has as its system Gram-positive microorganisms. Particulars: cited from earlier work.
The test system of series [7] is mouse leukemia L1210. The following applies: cited from earlier work.
In series [8] the test system is Sarcoma 180. The following applies: cited from earlier work.
The subject of series [9] is Ehrlich carcinoma. The following applies: cited from earlier work.
The conditions of series [10]: prior art statement; cited from earlier work.

Consider `N=C(N)NCc1ccccc1CCCCC(=O)N[C@@H](CO)C(=O)NCCCCNCCCN` [Compound 8, 10-{N-[5-(2-GMP)Pentanoyl]-L-ceryl}-1,5,10-TAD trihydrochloride], for which the “Percent residue in aqueous solution” value in series [1] (Time 0 (taken as 100%)) was determined as 100%; in series [1] (Time 12 (time unit not given)), 99.7%; in series [1] (Time 24 (time unit not given)), 99.9%; in series [1] (Time 48 (time unit not given)), 99.5%; in [1] (Time 72 (time unit not given)), 99.8%; in [1] (Time 120 (time unit not given)), 99.7%. In addition, the “Percent residue in aqueous solution” value in [1] (Time 168 (time unit not given)) is on record as 99.8%. Further, the IC50 in series [2] is 0.97 µg/mL.
Regarding `N=C(N)NCCCc1ccc(C(=O)NCC(=O)NCCCCNCCCN)cc1` [Compound 7, 10-{N-[4-(3-GPro)Benzoyl]glycyl}-1,5,10-TAD trihydrochloride], the “Percent residue in aqueous solution” value in series [1] (Time 0 (taken as 100%)) amounted to 100%; in series [1] (Time 12 (time unit not given)), 99.6%; in [1] (Time 24 (time unit not given)), 99.6%; in series [1] (Time 48 (time unit not given)) it was 100%; in [1] (Time 72 (time unit not given)) it was 100%; in series [1] (Time 120 (time unit not given)), 99.9%. Also, the “Percent residue in aqueous solution” value in [1] (Time 168 (time unit not given)) is 99.7%. In [2], this compound yielded an IC50 of 0.92 µg/mL.
For the compound `N=C(N)NCc1cccc(CCC(=O)N[C@@H](CO)C(=O)NCCCCNCCCN)c1` [Compound 5, 10-{N-[3-(3-GMP)Propanoyl]-L-seryl}-1,5,10-TAD trihydrochloride], the “Percent residue in aqueous solution” value in series [1] (Time 0 (taken as 100%)) is on record as 100%; in series [1] (Time 12 (time unit not given)), 99.9%; in [1] (Time 24 (time unit not given)), 99.6%; in [1] (Time 48 (time unit not given)), 99.6%; in series [1] (Time 72 (time unit not given)), 99.9%; in series [1] (Time 120 (time unit not given)) it was 99.6%. Further, the “Percent residue in aqueous solution” value in series [1] (Time 168 (time unit not given)) stood at 99.8%.
As to `N=C(N)NCCCc1ccc(C(=O)N[C@@H](CO)C(=O)NCCCCNCCCN)cc1` [Compound 4, 10-{N-[4-(3-GPro)Benzoyl]-L-seryl}-1,5,10-TAD trihydrochloride], the “Percent residue in aqueous solution” value is given as 100% in series [1] (Time 0 (taken as 100%)); 99.6% in [1] (Time 12 (time unit not given)); 99.9% in [1] (Time 24 (time unit not given)); 99.6% in series [1] (Time 48 (time unit not given)); 99.7% in [1] (Time 72 (time unit not given)); 99.9% in series [1] (Time 120 (time unit not given)). In [1] (Time 168 (time unit not given)), the “Percent residue in aqueous solution” value is listed as 99.5%. 1.1 µg/mL corresponded to half-maximal inhibition in series [2] (IC50).
Consider `N=C(N)Nc1ccc(CCCC(=O)N[C@@H](CO)C(=O)NCCCCNCCCN)cc1` [Compound 1, 10-{N-[4-(4-GP)Butanoyl]-L-seryl}-1,5,10-TAD trihydrochloride], for which the “T/C (percent life prolongation)” value in [3] (0.39 mg/kg/day) was found to be 149%; in series [3] (0.78 mg/kg/day) it was 406%; in series [3] (1.56 mg/kg/day), 435%; in series [3] (3.13 mg/kg/day), 435%; in [3] (6.25 mg/kg/day), 435%; in series [3] (12.50 mg/kg/day) it was 420%. The “T/C (percent life prolongation)” value in [3] (25.00 mg/kg/day) turned out to be 178%. In addition, the “Percent residue in aqueous solution” value in series [1] (Time 0 (taken as 100%)) was determined as 100%; in [1] (Time 12 (time unit not given)), 99.8%; in [1] (Time 24 (time unit not given)) it was 99.6%; in series [1] (Time 48 (time unit not given)), 99.8%; in series [1] (Time 72 (time unit not given)), 99.5%; in series [1] (Time 120 (time unit not given)) it was 99.6%. Besides, the “Percent residue in aqueous solution” value in [1] (Time 168 (time unit not given)) is listed as 99.5%. Moreover, in series [4], the “Decrease rate of body weight of rats” value is recorded as “very small”. In addition, in series [4] (rats), the toxicity result is on record as “a little”.
In the case of `N=C(N)Nc1ccc(CCCC(=O)NCC(=O)NCCCCNCCCN)cc1` [Compound 2, 10-{N-[4-(4-GP)Butanoyl]glycyl}-1,5,10-TAD trihydrochloride], the “T/C (percent life prolongation)” value in [3] (0.39 mg/kg/day) is on record as 109%; in series [3] (0.78 mg/kg/day) it was 145%; in series [3] (1.56 mg/kg/day) it was 435%; in series [3] (3.13 mg/kg/day), 435%; in [3] (6.25 mg/kg/day), 435%; in [3] (12.50 mg/kg/day) it was 435%. The “T/C (percent life prolongation)” value in series [3] (25.00 mg/kg/day) was found to be 435%; in series [3] (50.00 mg/kg/day) it was 15%. The “Percent residue in aqueous solution” value in series [1] (Time 0 (taken as 100%)) was determined as 100%; in series [1] (Time 12 (time unit not given)), 99.7%; in series [1] (Time 24 (time unit not given)), 99.9%; in series [1] (Time 48 (time unit not given)) it was 99.8%; in [1] (Time 72 (time unit not given)), 99.9%; in series [1] (Time 120 (time unit not given)) it was 100%. Besides, in [1] (Time 168 (time unit not given)), the “Percent residue in aqueous solution” value is listed as 99.8%.
Turning to `N=C(N)NCc1ccc(CCC(=O)N[C@@H](CO)C(=O)NCCCCNCCCN)cc1` [Compound 3, 10-{N-[3-(4-GMP)Propanoyl]-L-seryl}-1,5,10-TAD trihydrochloride], the “Percent residue in aqueous solution” value in series [1] (Time 0 (taken as 100%)) amounted to 100%; in series [1] (Time 12 (time unit not given)), 99.6%; in series [1] (Time 24 (time unit not given)), 99.5%; in [1] (Time 48 (time unit not given)) it was 99.8%; in series [1] (Time 72 (time unit not given)) it was 99.6%; in series [1] (Time 120 (time unit not given)), 99.6%. Moreover, the “Percent residue in aqueous solution” value in [1] (Time 168 (time unit not given)) is 99.8%.
With `N=C(N)NCc1ccc(CCC(=O)N[C@@H](CO)C(=O)NCCCCNCCCN)c(Cl)c1` [Compound 9, 10-{N-[3-(2-Chloro-4-GMP)propanoyl]-L-seryl}-1,5,10-TAD trihydrochloride], the “Percent residue in aqueous solution” value is recorded as 100% in series [1] (Time 0 (taken as 100%)); 99.8% in [1] (Time 12 (time unit not given)); 99.8% in series [1] (Time 24 (time unit not given)); 99.7% in series [1] (Time 48 (time unit not given)); 100% in [1] (Time 72 (time unit not given)); 99.5% in series [1] (Time 120 (time unit not given)). Also, in [1] (Time 168 (time unit not given)), the “Percent residue in aqueous solution” value is listed as 99.6%.
Take `N=C(N)NCCCCC(O)CC(=O)NC(O)C(=O)NCCCCNCCCN` (stereo not drawn) [Spergualin]: the antineoplastic effects result in series [5], in [7], in series [8] and in series [9] was “significant antineoplastic effects” throughout. Further, the “Percent residue in aqueous solution” value in [1] (Time 0 (taken as 100%)) turned out to be 100%. In addition, the “inhibit the growth of Gram-positive microorganisms” value in series [6] is listed as “ability to inhibit the growth”. The “stability in an aqueous solution” value in series [10] is listed as “unstable”.
In the case of `N=C(N)Nc1ccc(CCCCC(=O)N[C@@H](CO)C(=O)NCCCCNCCCN)cc1` [Compound 6, 10-{N-[5-(4-GP)Pentanoyl]-L-seryl}-1,5,10-TAD trihydrochloride], the “Percent residue in aqueous solution” value in series [1] (Time 0 (taken as 100%)) turned out to be 100%; in [1] (Time 12 (time unit not given)), 99.5%; in [1] (Time 24 (time unit not given)) it was 99.8%; in series [1] (Time 48 (time unit not given)), 99.7%; in series [1] (Time 72 (time unit not given)), 99.7%; in series [1] (Time 120 (time unit not given)), 99.5%. Also, the “Percent residue in aqueous solution” value in [1] (Time 168 (time unit not given)) was 100%.
